This note sets out measurements from ChEMBL document CHEMBL1132525, “Indolocarbazole poisons of human topoisomerase I: regioisomeric analogues of ED-110” (Bioorg Med Chem Lett, 1999).

What is called IC50 is the midpoint of a concentration-inhibition curve. A lower IC50 goes with greater potency in that assay.

The structures appear in SMILES notation.

Assay [1] concerns DU-145. Put plainly: In vitro antitumor activity against human solid tumor prostate cell line DU-145; No active. Type of assay: functional, cell-based.
In assay [2] the test system is OVCAR-3. Description: In vitro antitumor activity against human solid tumor ovarian cell line OVCAR-3; No active. Type of assay: functional, cell-based.
Assay [3] has as its system HT-29. Put plainly: In vitro antitumor activity against human solid tumor colon cell line HT-29; No active. Type of assay: functional, cell-based.
The test system of assay [4] is OVCAR-3. Put plainly: In vitro antitumor activity against human solid tumor ovarian cell line OVCAR-3. Type of assay: functional, cell-based.
The target of a further assay is T1, DNA topoisomerase 1 (Homo sapiens, UniProt P11387).
T1 sequence (P11387 whole entry): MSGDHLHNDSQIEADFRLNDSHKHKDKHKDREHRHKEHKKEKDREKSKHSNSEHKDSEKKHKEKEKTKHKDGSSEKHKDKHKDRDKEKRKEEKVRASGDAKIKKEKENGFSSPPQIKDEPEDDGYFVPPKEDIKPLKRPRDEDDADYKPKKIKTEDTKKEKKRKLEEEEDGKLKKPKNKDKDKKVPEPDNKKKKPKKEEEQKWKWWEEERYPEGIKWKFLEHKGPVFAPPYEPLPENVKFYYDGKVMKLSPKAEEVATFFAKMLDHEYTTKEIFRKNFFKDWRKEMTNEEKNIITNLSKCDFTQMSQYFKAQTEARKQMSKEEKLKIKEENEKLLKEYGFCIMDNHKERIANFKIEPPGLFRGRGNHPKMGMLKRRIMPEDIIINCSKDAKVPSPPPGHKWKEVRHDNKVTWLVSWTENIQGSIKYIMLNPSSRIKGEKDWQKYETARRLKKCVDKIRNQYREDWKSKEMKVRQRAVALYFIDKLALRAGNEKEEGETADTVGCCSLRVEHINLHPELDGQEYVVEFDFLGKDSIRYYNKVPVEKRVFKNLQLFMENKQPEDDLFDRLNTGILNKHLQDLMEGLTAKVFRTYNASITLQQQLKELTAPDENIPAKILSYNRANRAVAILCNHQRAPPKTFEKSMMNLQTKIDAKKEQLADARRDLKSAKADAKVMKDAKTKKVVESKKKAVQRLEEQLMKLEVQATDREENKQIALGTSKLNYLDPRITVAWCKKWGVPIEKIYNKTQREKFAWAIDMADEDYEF
Description: Concentration required to inhibit human DNA topoisomerase I (Topo I).

The subject of assay [5] is DU-145. Description: In vitro antitumor activity against human solid tumor prostate cell line DU-145. Type of assay: functional, cell-based.
Assay [6] concerns HT-29. Put plainly: In vitro antitumor activity against human solid tumor colon cell line HT-29. Type of assay: functional, cell-based.

In the case of `O=C1NC(=O)C(c2cn(C3OC(CO)C(O)C(O)C3O)c3c(O)cccc23)=C1c1c[nH]c2c(O)cccc12` (centres undefined), the half-maximal inhibitory concentration (IC50) result in the assay with DU-145 [1], with OVCAR-3 [2] and in the assay with HT-29 [3] was “Not Active” in each case.

Regarding `O=C1NC(=O)c2c1c1c3cccc(O)c3[nH]c1c1c2c2cccc(O)c2n1C1OC(CO)C(O)C(O)C1O` (centres undefined), the IC50 in the assay on OVCAR-3 [4] is 920 nM; against DNA topoisomerase 1 it was 13000 nM; with DU-145 [5] it was 2300 nM; in the assay with HT-29 [6], above 10000 nM.

`O=C1NC(=O)c2c1c1c([nH]c3cccc(O)c31)c1c2c2c(O)cccc2n1C1OC(CO)C(O)C(O)C1O` (centres undefined): the concentration for half-maximal inhibition (IC50) in the assay with OVCAR-3 [4] amounted to 440 nM; against DNA topoisomerase 1, 36000 nM; with DU-145 [5], 950 nM; in the assay with HT-29 [6], 1300 nM.

With `O=C1NC(=O)c2c1c1c3cc(O)ccc3[nH]c1c1c2c2cc(O)ccc2n1C1OC(CO)C(O)C(O)C1O` (centres undefined), the IC50 in the assay with OVCAR-3 [4] worked out at 190 nM; on DNA topoisomerase 1, 1500 nM; with DU-145 [5], 67 nM; with HT-29 [6] it was 840 nM.

As for `O=C1NC(=O)c2c1c1c3ccc(O)cc3[nH]c1c1c2c2ccc(O)cc2n1C1OC(CO)C(O)C(O)C1O` (centres undefined), the IC50 is 190 nM in the assay on OVCAR-3 [4], 2300 nM on DNA topoisomerase 1, 120 nM with DU-145 [5] and 9700 nM in the assay on HT-29 [6].
